Key:
[1] = molecular target: T1, human ERβ (Homo sapiens, UniProt Q92731); experiment: ERE-TK-luc reporter transactivation assay in CV-1 cells, full-length hERb; type: cell-based
T1 construct: Human ERα and ERβ were examined as full-length proteins using an estrogen receptor responsive reporter construct; expressed in transfected cells; host or cells: CV-1
Procedure: (§1) Human ERα and ERβ were examined as full-length proteins using an estrogen receptor responsive reporter construct.
(§2) Suitable reporter gene constructs are well known to skilled workers in the fields of biochemistry and molecular biology. […] Other vectors known in the art can be used in the methods of the present invention.
(§3) CV-1 cells for the activation assays were grown in Dulbecco's modified Eagle's medium supplemented with 10% resin charcoal-stripped fetal bovine serum, 50 U/ml penicillin G and 50 μg/ml streptomycin sulfate (DMEM-FBS) at 37° C. in 5% CO2. One day prior to transfection, cells were plated to 50-80% confluence using phenol red free DMEM-FBS.

[2] = molecular target: T2, HRHN-GAL (yeast GAL4 DNA binding domain without receptor sequences) (Saccharomyces cerevisiae, UniProt P04386); experiment: GAL4 reporter transactivation assay in CV-1 cells, control vector without receptor; type: cell-based, monkey; conditions: for Fold activation, HRHN-GAL: reporter 0.42:vector 0.00875, no PGC-1a
T2 construct: expressed in transfected cells; host or cells: CV-1
T2 sequence (P04386 1-147): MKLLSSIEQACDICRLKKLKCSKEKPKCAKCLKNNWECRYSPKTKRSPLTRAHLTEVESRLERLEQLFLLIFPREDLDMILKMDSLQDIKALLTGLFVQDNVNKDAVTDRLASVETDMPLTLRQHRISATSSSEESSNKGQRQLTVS

[3] = molecular target: T3, human ERα (Homo sapiens, UniProt P03372); experiment: ERE-TK-luc reporter transactivation assay in CV-1 cells, full-length hERa; type: cell-based
T3 construct: Human ERα and ERβ were examined as full-length proteins using an estrogen receptor responsive reporter construct; expressed in transfected cells; host or cells: CV-1
T3 sequence (P03372 1-595): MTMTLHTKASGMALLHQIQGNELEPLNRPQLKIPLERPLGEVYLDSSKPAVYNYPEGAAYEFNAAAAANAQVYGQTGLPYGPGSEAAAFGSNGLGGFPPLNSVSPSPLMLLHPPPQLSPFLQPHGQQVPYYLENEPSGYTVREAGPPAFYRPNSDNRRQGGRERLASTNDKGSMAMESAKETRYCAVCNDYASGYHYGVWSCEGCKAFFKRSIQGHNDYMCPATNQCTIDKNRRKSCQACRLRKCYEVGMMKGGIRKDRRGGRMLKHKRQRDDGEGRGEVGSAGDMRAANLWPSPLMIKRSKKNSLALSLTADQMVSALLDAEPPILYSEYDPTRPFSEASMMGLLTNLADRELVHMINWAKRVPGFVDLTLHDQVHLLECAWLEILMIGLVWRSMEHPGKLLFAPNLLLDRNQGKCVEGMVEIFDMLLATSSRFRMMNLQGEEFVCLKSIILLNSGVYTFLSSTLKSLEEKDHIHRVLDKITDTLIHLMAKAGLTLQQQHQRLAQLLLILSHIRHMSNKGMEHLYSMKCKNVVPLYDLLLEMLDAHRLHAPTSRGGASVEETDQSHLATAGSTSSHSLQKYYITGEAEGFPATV
Procedure: as §1, §2, §3

[4] = molecular target: T4, GAL-hERRa (human ERRα ligand binding domain fused to GAL4 DNA binding domain) (Homo sapiens, UniProt P11474); experiment: GAL4 reporter transactivation assay in CV-1 cells, GAL-hERRa; type: cell-based; conditions: for Fold activation, GAL-hERRa + PGC-1a / Fold activation, GAL-hERRa: CV-1; for Fold activation, GAL-hERRa + PGC-1a: reporter 0.42:vector 0.00875:PGC-1a 0.035; for Fold activation, GAL-hERRa: reporter 0.42:vector 0.00875, no PGC-1a
T4 construct: expressed in transfected cells; host or cells: CV-1
T4 sequence (P11474 193-421 limits assumed): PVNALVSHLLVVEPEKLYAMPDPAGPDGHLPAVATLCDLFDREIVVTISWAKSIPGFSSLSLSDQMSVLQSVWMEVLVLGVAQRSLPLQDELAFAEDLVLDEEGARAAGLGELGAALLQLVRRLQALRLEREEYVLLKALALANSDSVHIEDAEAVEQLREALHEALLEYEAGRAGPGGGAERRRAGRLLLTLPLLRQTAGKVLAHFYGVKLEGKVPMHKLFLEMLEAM

[5] = molecular target: T5, GAL-L-hERRb (human ERRβ ligand binding domain fused to GAL4 DNA binding domain) (Homo sapiens, UniProt O95718); experiment: GAL4 reporter transactivation assay in CV-1 cells, GAL-L-hERRb; type: cell-based; conditions: for Fold activation, GAL-L-hERRb + PGC-1a / Fold activation, GAL-L-hERRb: CV-1; for Fold activation, GAL-L-hERRb + PGC-1a: reporter 0.42:vector 0.00875:PGC-1a 0.035; for Fold activation, GAL-L-hERRb: reporter 0.42:vector 0.00875, no PGC-1a
T5 construct: expressed in transfected cells; host or cells: CV-1
T5 sequence (O95718 208-432 limits assumed): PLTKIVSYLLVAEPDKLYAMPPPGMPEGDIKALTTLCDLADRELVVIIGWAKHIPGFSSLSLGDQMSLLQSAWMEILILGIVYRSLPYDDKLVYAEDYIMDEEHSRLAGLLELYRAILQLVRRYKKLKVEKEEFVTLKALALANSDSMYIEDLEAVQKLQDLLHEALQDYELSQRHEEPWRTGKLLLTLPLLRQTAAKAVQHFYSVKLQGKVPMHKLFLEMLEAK

T1 sequence (Q92731 whole entry): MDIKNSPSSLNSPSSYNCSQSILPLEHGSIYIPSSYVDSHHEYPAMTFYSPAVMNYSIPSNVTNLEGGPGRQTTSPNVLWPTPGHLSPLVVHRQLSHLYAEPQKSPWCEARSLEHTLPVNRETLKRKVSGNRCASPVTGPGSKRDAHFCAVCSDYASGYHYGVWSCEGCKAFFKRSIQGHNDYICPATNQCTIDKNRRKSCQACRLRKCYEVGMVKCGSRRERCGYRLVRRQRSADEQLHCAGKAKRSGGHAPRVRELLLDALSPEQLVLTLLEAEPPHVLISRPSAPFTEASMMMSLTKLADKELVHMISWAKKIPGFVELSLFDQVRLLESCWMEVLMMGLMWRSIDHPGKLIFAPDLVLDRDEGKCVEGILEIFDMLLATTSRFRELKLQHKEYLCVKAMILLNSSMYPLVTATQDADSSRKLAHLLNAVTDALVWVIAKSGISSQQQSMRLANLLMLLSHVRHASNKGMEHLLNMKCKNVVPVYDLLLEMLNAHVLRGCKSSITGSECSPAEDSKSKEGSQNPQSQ

Which “Fold Activation, ERE-TK-luc, hERb” value ([1]; Table 7, CV-1, drug conc 30 μM) does the source give for `O=C(NN=Cc1ccccc1)c1ccc(O)cc1` [DY162, 4-Hydroxy-benzoic acid benzylidene-hydrazide] here?
The value was 1.74 fold.

And the “Activation of ERb” value ([1]; specificity for ERRs)?
The value was “do not activate”.

And the “Fold activation, HRHN-GAL” value ([2]; 0.3 μM)?
The value was 1.14 fold.

And the “Fold activation, HRHN-GAL” value ([2]; 1 μM)?
The value was 1.07 fold.

What about the “Fold activation, HRHN-GAL” value ([2]; 3 μM (first 3 μM column)) of the same compound?
The value was 1.02 fold.

And the “Fold activation, HRHN-GAL” value ([2]; 3 μM (second 3 μM column))?
The value was 1.12 fold.

And the “Fold activation, HRHN-GAL” value ([2]; 10 μM)?
The value was 1.26 fold.

And the “Fold activation, HRHN-GAL” value ([2]; 30 μM)?
Its value is 1.25 fold.

And the “Fold activation, HRHN-GAL + PGC-1a” value ([2]; reporter 0.42:vector 0.00875:PGC-1a 0.035, 0.3 μM)?
The value was 1.26 fold.

What about the “Fold activation, HRHN-GAL + PGC-1a” value ([2]; reporter 0.42:vector 0.00875:PGC-1a 0.035, 1 μM) of the same compound?
The value was 1.17 fold.

What about the “Fold activation, HRHN-GAL + PGC-1a” value ([2]; reporter 0.42:vector 0.00875:PGC-1a 0.035, 3 μM (first 3 μM column)) of the same compound?
Its value is 1.13 fold.

And the “Fold activation, HRHN-GAL + PGC-1a” value ([2]; reporter 0.42:vector 0.00875:PGC-1a 0.035, 3 μM (second 3 μM column))?
The value was 1.97 fold.

And the “Fold activation, HRHN-GAL + PGC-1a” value ([2]; reporter 0.42:vector 0.00875:PGC-1a 0.035, 10 μM)?
The value was 1.68 fold.

And the “Fold activation, HRHN-GAL + PGC-1a” value ([2]; reporter 0.42:vector 0.00875:PGC-1a 0.035, 30 μM)?
Its value is 1.93 fold.

And the “Fold Activation, ERE-TK-luc, hERa” value ([3]; Table 7, CV-1, drug conc 30 μM)?
The value was 1.74 fold.

What about the “Activation of ERa” value ([3]; specificity for ERRs) of the same compound?
Its value is “do not activate”.

What about the “Fold activation, GAL-hERRa + PGC-1a” value ([4]; 0.3 μM) of the same compound?
The value was 1.26 fold.

And the “Fold activation, GAL-hERRa + PGC-1a” value ([4]; 1 μM)?
The value was 1.22 fold.

And the “Fold activation, GAL-hERRa + PGC-1a” value ([4]; 3 μM (first 3 μM column))?
Its value is 2.11 fold.

What about the “Fold activation, GAL-hERRa + PGC-1a” value ([4]; 3 μM (second 3 μM column)) of the same compound?
Its value is 1.93 fold.

And the “Fold activation, GAL-hERRa + PGC-1a” value ([4]; 10 μM)?
Its value is 2.18 fold.

And the “Fold activation, GAL-hERRa + PGC-1a” value ([4]; 30 μM)?
The value was 2.36 fold.

And the “Fold activation, GAL-hERRa” value ([4]; 0.3 μM)?
Its value is 0.77 fold.

And the “Fold activation, GAL-hERRa” value ([4]; 1 μM)?
The value was 0.86 fold.

What about the “Fold activation, GAL-hERRa” value ([4]; 3 μM (first 3 μM column)) of the same compound?
The value was 0.89 fold.

What about the “Fold activation, GAL-hERRa” value ([4]; 3 μM (second 3 μM column)) of the same compound?
Its value is 1.51 fold.

And the “Fold activation, GAL-hERRa” value ([4]; 10 μM)?
The value was 1.82 fold.

And the “Fold activation, GAL-hERRa” value ([4]; 30 μM)?
Its value is 2.03 fold.

What about the “Activation of ERRα” value ([4]; in the presence of PGC-1a) of the same compound?
The value was “can activate”.

What about the “Fold activation, GAL-L-hERRb + PGC-1a” value ([5]; 0.3 μM) of the same compound?
The value was 0.77 fold.

And the “Fold activation, GAL-L-hERRb + PGC-1a” value ([5]; 1 μM)?
Its value is 0.78 fold.

And the “Fold activation, GAL-L-hERRb + PGC-1a” value ([5]; 3 μM (first 3 μM column))?
The value was 1.06 fold.

And the “Fold activation, GAL-L-hERRb + PGC-1a” value ([5]; 3 μM (second 3 μM column))?
The value was 1.65 fold.

And the “Fold activation, GAL-L-hERRb + PGC-1a” value ([5]; 10 μM)?
Its value is 1.79 fold.

And the “Fold activation, GAL-L-hERRb + PGC-1a” value ([5]; 30 μM)?
Its value is 2.61 fold.

What about the “Fold activation, GAL-L-hERRb” value ([5]; 0.3 μM) of the same compound?
Its value is 1.09 fold.

What about the “Fold activation, GAL-L-hERRb” value ([5]; 1 μM) of the same compound?
The value was 1.05 fold.

And the “Fold activation, GAL-L-hERRb” value ([5]; 3 μM (first 3 μM column))?
The value was 0.87 fold.

And the “Fold activation, GAL-L-hERRb” value ([5]; 3 μM (second 3 μM column))?
Its value is 0.96 fold.

What about the “Fold activation, GAL-L-hERRb” value ([5]; 10 μM) of the same compound?
Its value is 1.57 fold.

What about the “Fold activation, GAL-L-hERRb” value ([5]; 30 μM) of the same compound?
Its value is 1.48 fold.

What about the “Activation of ERRβ” value ([5]; in the presence of PGC-1a) of the same compound?
The value was “can activate”.
